Assay results taken from article PMC6685669, “Mapping the Structural Path for Allosteric Inhibition of a Short-Form ATP Phosphoribosyltransferase by Histidine” (Biochemistry, 2019).

What was measured:
PaATPPRT [1] = target: T1, PaATPPRT (Psychrobacter arcticus, UniProt Q4FQF7+Q4FTX3); format: biochemical; settings: ADP replacing ATP as substrate, 20 °C
T1 construct: made in house

PaHisGS = tested on: PaHisGS; design: method as in PMID 28092443; settings: PaHisGS in the absence of PaHisZ; cited from earlier work
PaHisZ = target: T2, PaHisZ (Psychrobacter arcticus, UniProt Q4FTX3); assay: Differential scanning fluorimetry (DSF), thermal denaturation of PaHisZ; format: binding
T2 construct: made in house
Procedure: DSF measurements (λex = 490 nm; λem = 610 nm) were performed in 96-well plates on a Stratagene Mx3005p instrument. Thermal denaturation of 9.4 μM PaHisZ was assayed (50 μL) in the presence of several histidine concentrations (0–8 mM) in 100 mM tricine, 100 mM KCl, 4 mM DTT, and 15 mM MgCl2 (pH 8.5). Sypro Orange (5×) (Invitrogen) was added to all wells. Thermal denaturation curves were recorded over a temperature range of 25–65 °C with 1 °C min^–1 increments. Control curves without the enzyme and were subtracted from curves with the enzyme. All measurements were carried out in quintuplicate.
Kinetic and DSF data were analyzed by the nonlinear regression function of SigmaPlot 13 (SPSS Inc.). Data points and error bars in graphs are represented as means ± the standard error, and kinetic and equilibrium constants are presented as means ± the fitting error. Substrate saturation data were fitted to eq 1. Inhibition data at fixed substrate concentrations were fitted to eq 2, and inhibition mechanism data were fitted to eq 3. […]

PaATPPRT [2] = target: T1, PaATPPRT; assay: PaATPPRT activity assay, initial rates (absorbance at 290 nm, PRATP formation), inhibition by histidine; format: biochemical; settings: for Kii: linear regression of intercept replot of individually fitted double-reciprocal curves
Procedure: All assays were performed under initial rate conditions in the forward direction at 20 °C, in the presence or absence of histidine, as previously described[20] by monitoring the increase in absorbance at 290 nm due to the formation of PRATP (ε290 = 3600 M^–1 cm^–1)[23] in 1 cm path length quartz cuvettes (Hellma) in a Shimadzu UV-2600 spectrophotometer. Unless stated otherwise, for PaHisGS activity, the PaHisGS concentration was typically 2 μM, and for PaATPPRT activity, PaHisGS and PaHisZ concentrations were 0.28 and 15 μM, respectively. Reactions were started by addition of PRPP. Control reaction mixtures lacked either ATP, PRPP, PaHisGS, or PaHisZ. […] Initial rates were also measured with saturating concentrations of both substrates in the presence or absence of 4 mM TIH. All kinetic measurements were performed at least in duplicate unless stated otherwise.
The half-maximal inhibitory concentration of histidine was determined by measuring the initial rates for PaATPPRT (0.24 μM) in the presence of 5.6 mM ATP (or 5.6 mM ADP), 2 mM PRPP, and varying concentrations of histidine (0–320 μM). The inhibition mechanism was investigated by measuring the initial rates for PaATPPRT (0.28 μM) at saturating concentrations of one substrate and varying concentrations of the other, either ATP (0.2–2.8 mM) or PRPP (0.1–2.0 mM), with different concentrations of histidine (0–10 μM). In some instances, the lowest-concentration data point was an outlier in the double-reciprocal plot and was excluded from the fit.
Kinetic and DSF data were analyzed by the nonlinear regression function of SigmaPlot 13 (SPSS Inc.). Data points and error bars in graphs are represented as means ± the standard error, and kinetic and equilibrium constants are presented as means ± the fitting error. Substrate saturation data were fitted to eq 1. Inhibition data at fixed substrate concentrations were fitted to eq 2, and inhibition mechanism data were fitted to eq 3. In eqs 1–3, v is the initial rate, S is the concentration of the varying substrate, kcat is the steady-state turnover number, KM is the apparent Michaelis constant, ET is total enzyme concentration, vi is the initial rate in the presence of an inhibitor, IC50 is the half-maximal inhibitory concentration, h is the Hill slope, Kis is the slope inhibition constant, and Kii is the intercept inhibition constant. DSF thermal denaturation data were fitted to eq 4,[30] and PaHisZ–histidine complex equilibrium dissociation data were fitted to eq 5. In eqs 4 and 5, FU is the fraction unfolded, T is the temperature in degrees Celsius, Tm is the melting temperature, c is the slope of the transition region, LL and UL are folded and unfolded baselines, respectively, Tm0 is the Tm in the absence of histidine, Tm∞ is the Tm at an infinite histidine concentration, H is the histidine concentration, and KD is the apparent equilibrium dissociation constant for the PaHisZ–histidine complex.

Y263F-PaATPPRT = target: T3, Y263F-PaATPPRT (Psychrobacter arcticus, UniProt Q4FQF7+Q4FTX3, Y263F); assay: Y263F-PaHisZ-based PaATPPRT activity assay, initial rates with and without histidine; format: biochemical
T3 construct: made in house
From the text: Replacement of tyrosine for phenylalanine at position 263 of PaHisZ was accomplished by the method of Liu and Naismith,[29] with primers 5′-[…]-3′ and 5′-[…]-3′. Successful mutation was confirmed by DNA sequencing (Eurofins Genomics). Y263F-PaHisZ was expressed and purified by the same protocol reported for wild-type (WT) PaHisZ.[20] ESI/MS analysis of the protein yielded a mass of 43068.9, exactly what would be expected by the loss of a hydroxyl group when compared with the mass of WT-PaHisZ.[20] Y263F-PaHisZ-based PaATPPRT was assayed for catalytic activity under initial rate conditions at 20 °C in the presence of 5.6 mM ATP and 2 mM PRPP and in the presence or absence of 320 μM histidine, along with other reaction components exactly as described for WT-PaATPPRT. Measurements were carried out in duplicate.

PaATPPRT [3] = target: T1, PaATPPRT; assay: Rapid kinetics (stopped-flow), approach to steady state in the PaATPPRT reaction; format: biochemical
Procedure: Rapid kinetics experiments were carried out under multiple-turnover conditions by monitoring the increase in absorbance at 290 nm upon PRATP formation at 20 °C in an Applied Photophysics SX-20 stopped-flow spectrophotometer outfitted with a 5 μL mixing cell (0.5 cm path length and 0.9 ms dead time). In all experiments, each syringe contained 100 mM tricine (pH 8.5), 100 mM KCl, 4 mM DTT, 15 mM MgCl2, and 10 μM MtPPase. For the approach to steady state in the PaATPPRT reaction, one syringe carried 38 μM PaATPPRT, 4 mM PRPP, and either 0 or 60 μM histidine, while the other carried 7 mM ATP and either 0 or 60 μM histidine. Reaction was triggered by rapidly mixing 55 μL from each syringe. The increase in absorbance was monitored in a split-time base for 1 s, with 2500 data points collected before 0.2 s and 2500 in the following 0.8 s. At least four traces were acquired for each reaction, and controls lacked PRPP. For initial rates of PaATPPRT and PaHisGS reactions, one syringe carried either 2–4 μM PaHisGS or 4 μM PaATPPRT, 4 mM PRPP, and either 0 or 1.28 mM histidine, while the other carried 11.2 mM ATP. Reaction was triggered by rapidly mixing 55 μL from each syringe. The increase in absorbance was monitored in a linear-time base for 10 s. At least four traces were acquired for each reaction, with 1000 data points collected per trace. Controls lacked PRPP.

[4] = ATP and histidine (60 μM in syringe) rapidly mixed with PaATPPRT preincubated with PRPP
[5] = ATP rapidly mixed with PaATPPRT preincubated with PRPP and histidine (60 μM in syringe)

T3 sequence (Q4FQF7 whole entry): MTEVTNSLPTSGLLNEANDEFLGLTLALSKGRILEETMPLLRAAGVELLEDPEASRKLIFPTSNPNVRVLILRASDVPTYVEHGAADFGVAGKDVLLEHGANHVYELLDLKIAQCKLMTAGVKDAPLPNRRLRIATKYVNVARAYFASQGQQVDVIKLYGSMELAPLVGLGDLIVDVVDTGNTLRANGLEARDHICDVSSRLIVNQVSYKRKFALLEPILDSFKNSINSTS
T3 sequence (Q4FTX3 whole entry Y263F): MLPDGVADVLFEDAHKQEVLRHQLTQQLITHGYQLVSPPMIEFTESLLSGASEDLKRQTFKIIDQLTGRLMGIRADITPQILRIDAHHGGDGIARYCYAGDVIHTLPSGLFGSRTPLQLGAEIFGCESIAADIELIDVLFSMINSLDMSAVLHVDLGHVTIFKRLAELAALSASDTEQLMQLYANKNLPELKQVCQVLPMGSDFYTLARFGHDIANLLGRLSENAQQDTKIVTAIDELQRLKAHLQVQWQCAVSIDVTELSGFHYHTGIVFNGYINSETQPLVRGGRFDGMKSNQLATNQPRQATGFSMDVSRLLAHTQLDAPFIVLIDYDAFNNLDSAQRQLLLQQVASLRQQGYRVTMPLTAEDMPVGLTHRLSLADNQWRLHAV
T1 sequence (Q4FTX3 whole entry): as the sequence (Q4FTX3 whole entry Y263F) above, with F263Y counted along it
T1 sequence (Q4FQF7 whole entry): as the sequence (Q4FQF7 whole entry) above
T2 sequence (Q4FTX3 whole entry): as the sequence (Q4FTX3 whole entry Y263F) above, with F263Y counted along it

For `Nc1ncnc2c1ncn2[C@@H]1O[C@H](COP(=O)(O)OP(=O)(O)O)[C@@H](O)[C@H]1O` [ADP, adenosine 5′-diphosphate], which kcat (PaATPPRT [1]) is on record?
The kcat was 2.6 ± 0.4 s^–1.

What does the source list for `N[C@@H](Cc1c[nH]cn1)C(=O)O` [Histidine, L-histidine]?
sensitivity of PaHisGS to histidine (PaHisGS): insensitive; Kd (PaHisZ; free PaHisZ 9.4 μM, Tm dependence on histidine 0–8 mM, fit to eq 5, read-out: KD (apparent equilibrium dissociation constant, PaHisZ–histidine complex)): 2.8 ± 0.8 mM; effect on Tm of PaHisZ (PaHisZ; free PaHisZ, histidine 0–8 mM): increases; h (Hill slope) (PaATPPRT [2]; 5.6 mM ATP, 2 mM PRPP, 20 °C, fit to eq 2): 1.30 ± 0.04; h (Hill slope) (PaATPPRT [2]; ADP (5.6 mM) as the substrate, 2 mM PRPP): 1.32 ± 0.09; IC50 (PaATPPRT [2]; IC50, 5.6 mM ATP, 2 mM PRPP, 20 °C, fit to eq 2): 35.5 ± 0.8 µM; IC50 (PaATPPRT [2]; IC50, ADP (5.6 mM) as the substrate, 2 mM PRPP): 31 ± 1 µM; Ki (PaATPPRT [2]; Kis (slope inhibition constant), against ATP, global fit to eq 3): 56 ± 25 µM; Ki (PaATPPRT [2]; Kis (slope inhibition constant), against PRPP, global fit to eq 3): 22 ± 6 µM; Ki (PaATPPRT [2]; Kis, against ATP, linear regression of slope replot of individually fitted double-reciprocal curves): 60 µM; Ki (PaATPPRT [2]; Kis, against PRPP, linear regression of slope replot of individually fitted double-reciprocal curves): 30 µM; vi/v0 (ratio of initial rates in presence and absence of inhibitor) (PaATPPRT [2]; WT-PaATPPRT, 320 μM histidine, 5.6 mM ATP, 2 mM PRPP, 20 °C): 0.070 ± 0.004; Kii (intercept inhibition constant) (PaATPPRT [2]; against ATP, global fit to eq 3): 36 ± 5 µM; Kii (PaATPPRT [2]; against ATP): 40 µM; Kii (intercept inhibition constant) (PaATPPRT [2]; against PRPP, global fit to eq 3): 38 ± 7 µM; Kii (PaATPPRT [2]; against PRPP): 26 µM; inhibition mechanism (PaATPPRT [2]; against both substrates (PRPP and ATP)): noncompetitive; vi/v0 (ratio of initial rates in presence and absence of inhibitor) (Y263F-PaATPPRT; 320 μM histidine, 5.6 mM ATP, 2 mM PRPP, 20 °C): 0.250 ± 0.001; susceptibility to inhibition, Y263F-PaATPPRT less susceptible than WT-PaATPPRT (Y263F-PaATPPRT; 320 μM histidine, from vi/v0 of mutant and WT): > 3 fold; inhibition at 320 µM (Y263F-PaATPPRT; read-out: enzyme activity lost due to histidine inhibition): 75%; amplitude of the burst phase (PaATPPRT [3]; [4]): 3.49 ± 0.01 µM; steady-state rate (PaATPPRT [3]; [4]): 7.56 ± 0.01 μM s^–1; burst amplitude (PaATPPRT [3]; [5]): 0.53 ± 0.01 µM; steady-state rate (PaATPPRT [3]; [5]): 7.83 ± 0.01 μM s^–1

For `N[C@@H](Cc1cccs1)C(=O)O` [TIH, 3-(2-thienyl)-L-alanine], which “effect on PaATPPRT catalysis” value (PaATPPRT [2]; 4 mM TIH, saturating concentrations of both substrates) is on record?
The value was “no effect”.
